Experimental findings from patent publication US20240245647A1, “ISOMEROHYDROLASE INHIBITOR FOR TREATMENT OF ATROPHIC FORM OF AGE-RELATED MACULAR DEGENERATION AND STARGARDT DISEASE” (The Trustees of Columbia University in the City of New York, priority 2021, published 2024) are described below.

In brackets after ≈: the same amount, converted by molar mass.

The data set is described as follows: Thermodynamic aqueous solubility, shake-flask. To be noted: PBS pH 7.4, 24 h, 25° C., assay standards. The data set is classed as physicochemical. An excerpt:
In addition, chromatographic purity (%) was defined as the peak area of the principal peak relative to the total integrated peak area in the HPLC chromatogram of the calibration standard. A chromatogram of the calibration standard of each test compound, along with a UV/VIS spectrum with labeled absorbance maxima, was generated.

Setting [1] is: PBS (shake-flask), aqueous buffer, thermodynamic from solid.

Compound `CC/C(=C(/CC)c1ccc(O)cc1)c1ccc(O)cc1` [Diethylstilbesterol] registered a solubility at 24 h of 7.0 µM (≈ 1.88 µg/mL).
On to `CC(=O)N1CCN(c2ccc(OCC3COC(Cn4ccnc4)(c4ccc(Cl)cc4Cl)O3)cc2)CC1` (centres unmarked) [Ketoconazole], for which, under setting [1], the concentration in solution (solubility at 24 h) came to 153 µM (≈ 81.2 µg/mL).
Same read-out and setting: the figure for `COCCc1ccc(OCC(O)CNC(C)C)cc1` (centres unmarked) [Metoprolol] is 193 µM (≈ 51.5 µg/mL); for `O=C1NC(=O)C(c2ccccc2)(c2ccccc2)N1` [Phenytoin] it is 102 µM (≈ 25.7 µg/mL).
For the compound `CO[C@H]1/C=C/O[C@@]2(C)Oc3c(C)c(O)c4c(O)c(c(/C=N/N5CCN(C)CC5)c(O)c4c3C2=O)NC(=O)/C(C)=C\C=C\[C@H](C)[C@H](O)[C@@H](C)[C@@H](O)[C@@H](C)[C@H](OC(C)=O)[C@@H]1C` [Rifampicin], the solubility at 24 h under setting [1] was determined as 200 µM (≈ 165 µg/mL).
